Data taken from patent US8124129B2, “Crystalline form of the compound A-348441” (Karo Bio AB, priority 2005, dated 2012).

Columns and labels:
Type in all cases: physicochemical
[1] = Stability study under accelerated conditions: impurity profile / overall purity by HPLC; conditions: for overall purity (HPLC) after storage: 2 months; for overall purity (HPLC), initial: before storage
Description: (§1) Impurity profile, moisture content and crystalline form were measured on the samples, and then again approximately 3 months later for Sample 1, and 2 months later for Samples 2 and 3.
The impurity profile was measured by HPLC.

[2] = Stability study under accelerated conditions: moisture content by Karl Fischer analysis
Description: (§2) Three samples of Compound I were packaged separately in double polyethylene bags in a small cardboard box, which were stored in a stability chamber under accelerated conditions (40° C./75% […] Humidity). Sample 1 was 10 g of crystalline Form 1; Sample 2 was 2 g of amorphous product prepared as described in Example 1B above; and Sample 3 was 2 g of crystalline Form 2 made as described in Example 1A above.
as §1
Karl Fischer analysis was used to measure moisture content.

[3] = Stability study under accelerated conditions: crystalline form by differential scanning calorimetry; conditions: 3 months, 40° C./75% Residual Humidity
Description: as §2, §1

[4] = Solubility (general statement)
[5] = 40° C./75% Residual Humidity, double polyethylene bags
[6] = compared with crystalline form of Example 1S of WO 2004/000869 and amorphous form, general statement

## CC#C[C@]1(O)CC[C@H]2[C@@H]3CCC4=CC(=O)CCC4=C3[C@@H](c3ccc(N(C)CCO[C@H]4CC[C@@]5(C)[C@@H](C4)C[C@@H](O)[C@@H]4[C@@H]5C[C@H](O)[C@]5(C)[C@@H]([C@H](C)CCC(=O)O)CC[C@@H]45)cc3)C[C@@]21C [Sample 2, (3β,5β,7α,12α)-7,12-dihydroxy-3-{2-[{4-[17β-hydroxy-3-oxo-17α-prop-1-ynylestra-4,9-dien-11β-yl]phenyl}(methyl)amino]ethoxy}cholan-24-oic acid]
[1]; [5]
  overall purity (HPLC) after storage: 96.7%
[1]
  overall purity (HPLC), initial: 97.3%
[2]; 2 months, 40° C./75% Residual Humidity
  water content (Karl Fischer) after storage: 5%
[2]; before storage
  moisture content, initial: anhydrous

## CC#C[C@]1(O)CC[C@H]2[C@@H]3CCC4=CC(=O)CCC4=C3[C@@H](c3ccc(N(C)CCO[C@H]4CC[C@@]5(C)[C@@H](C4)C[C@@H](O)[C@@H]4[C@@H]5C[C@H](O)[C@]5(C)[C@@H]([C@H](C)CCC(=O)O)CC[C@@H]45)cc3)C[C@@]21C [Sample 3, (3β,5β,7α,12α)-7,12-dihydroxy-3-{2-[{4-[17β-hydroxy-3-oxo-17α-prop-1-ynylestra-4,9-dien-11β-yl]phenyl}(methyl)amino]ethoxy}cholan-24-oic acid]
[1]; [5]
  overall purity (HPLC) after storage: 90.7%
[1]
  overall purity (HPLC), initial: 93.2%
[2]; 2 months, 40° C./75% Residual Humidity, relative to Samples 1 and 2
  water uptake (Karl Fischer) after storage: intermediate behaviour

## CC#C[C@]1(O)CC[C@H]2[C@@H]3CCC4=CC(=O)CCC4=C3[C@@H](c3ccc(N(C)CCO[C@H]4CC[C@@]5(C)[C@@H](C4)C[C@@H](O)[C@@H]4[C@@H]5C[C@H](O)[C@]5(C)[C@@H]([C@H](C)CCC(=O)O)CC[C@@H]45)cc3)C[C@@]21C [Sample 1, (3β,5β,7α,12α)-7,12-dihydroxy-3-{2-[{4-[17β-hydroxy-3-oxo-17α-prop-1-ynylestra-4,9-dien-11β-yl]phenyl}(methyl)amino]ethoxy}cholan-24-oic acid]
[1]; 3 months, 40° C./75% Residual Humidity, double polyethylene bags
  change of overall purity (HPLC) after storage: did not change
[1]; compared with Compound I in other forms
  stability under accelerated conditions, overall conclusion: more stable
[1]; [6]
  stability: improved stability
[2]; 3 months, 40° C./75% Residual Humidity
  water uptake (Karl Fischer) after storage: little water uptake
[2]; [6]
  hygroscopicity: lower hygroscopicity
[3]
  change in crystalline form (DSC thermograms): no change in crystalline form
[4]
  solubility: low solubility
